Source: patent US20040162247A1, “Therapeutic agent or osteoporosis comprising an active ingredient of quercetin derivatives” (priority 2000, published 2004)
Several values for one entry are separate records, joined by “and”; a condition that tells them apart may be missing. Equal entries are not always repeated. Where two headings read alike, the source gives them in different places.

What was measured:
[1] = rat, in vivo
Experimental: (§1) Female SD (Sprague-Dawley) rats, a model animal for type I osteoporosis occurring after menopause were employed for evaluating pharmacological effectiveness of quercetin. Female rats (10 weeks old) weighing 200 to 300 g, obtained from the Korea Research Institute of Chemical Technology were employed as experimental animals. Experiment was carried out by the procedure which comprises removing ovary, administration of agents to the each group of rats, and at certain days after ovariectomy, the rats were sacrificed and subjected to analyses including measurement of body weight, examination of internal organs, measurement of trabecular bone area, complete blood count, and biochemical analyses of plasma.
(§2) The Sham group, animals operated upon for the surgery as in the ovariectomized rats except for removing ovary, were employed to compare the changes caused solely by ovariectomy in control group which were ovariectomized but no agent was administered. Control group was employed to compare the changes caused by administration of agents in test group which were ovariectomized and administered with testing agents.
(§3) During the period of administration, blood was sampled once a week. After 9-week administration, entire blood was withdrawn with heparin treatment. Following complete blood count (CBC), the blood was centrifuged at 3,000 rpm for 20 minutes to obtain plasma which was stored at −70° C. until use. For measurement of bone mineral density, the lumbar spine L5 and L6, and right tibia were removed and stored separately in 4% (v/v) formalin solution.

mice = conditions: orally administered, M. Sullivan et al. 1951; cited from earlier work
osteoclasts = test: Osteoclast proliferation, count of TRAP-positive multinucleated cells; format: cell-based, ICR mice; conditions: for Number of osteoclast (% of control group): day 2, TRAP staining
Experimental: ICR mice (Korea Research Institute of Chemical Technology, Taejon, Korea) were fed with calcium deficient diet (ICN Biomedicals, Inc., Ohio, U.S.A.) for 4 weeks to activate osteoclasts. The right and left tibiae and femurs of the calcium […] were removed avoiding contamination of surrounding muscle tissues. Femurs and right and left tibiae, classified on the clean bench and kept on ice separately, were added into the α-MEM containing 100 μg/ml streptomycin and then vigorously shaken respectively to extract osteoclasts into the medium. After kept on ice for 5 minutes, the cell suspension was centrifuged at 800×g for 3 minutes and the cell pellet was resuspended in a α-MEM nutrient medium supplemented with 10% FBS, 100 μg/ml streptomycin and 100 unit/ml penicillin. The cell suspension was distributed into wells of a 24-well plate at a cell number of 3.5×10^6/well. To the osteoclasts obtained in Example 2-1 above, quercetin was added to yield concentrations of 1×10^−8 to 1×10^−2 mg/ml. On day 2, the cells were subjected to tartrate-resistant acid phosphatase (TRAP) staining using a commercially available kit (Sigma Chemical Co., U.S.A.), followed by counting of osteoclasts which are TRAP-positive multinucleated cells (MNC), judged by more than three nuclei in a cell stained red (see: Table 2).

[2] = Body weight of ovariectomized rats during drug administration
Experimental: as §1, §2, §3

ovariectomized rats = test: Wet weight of internal organs of ovariectomized rats after drug administration; conditions: OVX rats
Experimental: To find out quercetin effect on internal organ of test animal, liver, kidney, brain, uterus, skin, and tibia were removed from the test animals administered with test agents for 9 weeks after operation and wet weight of each organ was measured (see: Table 4).

[3] = 9 weeks i.p. (E2 1 μg/kg/day; quercetin, genistein 10 mg/kg/day)

## O=c1c(O)c(-c2ccc(O)c(O)c2)oc2cc(O)cc(O)c12 [Quercetin, quercetin]
[1]
  Weight: 221.87 ± 7.57 g
mice
  LD50: not less than 160 mg/kg
osteoclasts; 1×10^−8 to 1×10^−4 mg/ml
  Inhibitory effect on the osteoclast proliferation (in words): little inhibitory effect
osteoclasts; 1 × 10^−2 mg/ml
  Number of osteoclast (% of control group): 25 % of control group and 24.7 ± 5.7 % of control group
osteoclasts; 1 × 10^−3 mg/ml
  Number of osteoclast (% of control group): 61 % of control group and 61.1 ± 4.1 % of control group
osteoclasts; 1 × 10^−4 mg/ml
  Number of osteoclast (% of control group): 89.6 ± 3.2 % of control group
osteoclasts; 1 × 10^−6 mg/ml
  Number of osteoclast (% of control group): 96.8 ± 2.7 % of control group
osteoclasts; 1 × 10^−8 mg/ml
  Number of osteoclast (% of control group): 100.9 ± 1.8 % of control group

## O=c1c(-c2ccc(O)cc2)coc2cc(O)cc(O)c12 [Genistein, genistein]
[2]; OVX rats, 1 week after operation (start of administration)
  Weight: 242.12 ± 5.96 g
[2]; OVX rats, compared with control group, E2 1 μg/kg/day, quercetin or genistein 10 mg/kg/day
  Body weight increase after ovariectomy (in words): rapid increase of body weight
[2]; OVX rats, i.p. from 1 week after operation (E2 1 μg/kg/day; quercetin, genistein 10 mg/kg/day), 2 weeks after operation
  Weight: 270.00 ± 8.05 g
[2]; OVX rats, i.p. from 1 week after operation (E2 1 μg/kg/day; quercetin, genistein 10 mg/kg/day), 3 weeks after operation
  Weight: 296.20 ± 7.68 g
[2]; OVX rats, i.p. from 1 week after operation (E2 1 μg/kg/day; quercetin, genistein 10 mg/kg/day), 4 weeks after operation
  Weight: 310.80 ± 7.80 g
[2]; OVX rats, i.p. from 1 week after operation (E2 1 μg/kg/day; quercetin, genistein 10 mg/kg/day), 5 weeks after operation
  Weight: 317.29 ± 7.93 g
[2]; OVX rats, i.p. from 1 week after operation (E2 1 μg/kg/day; quercetin, genistein 10 mg/kg/day), 6 weeks after operation
  Weight: 327.19 ± 8.31 g
[2]; OVX rats, i.p. from 1 week after operation (E2 1 μg/kg/day; quercetin, genistein 10 mg/kg/day), 7 weeks after operation
  Weight: 332.80 ± 9.23 g
[2]; OVX rats, i.p. from 1 week after operation (E2 1 μg/kg/day; quercetin, genistein 10 mg/kg/day), 8 weeks after operation
  Weight: 336.38 ± 9.01 g
[2]; OVX rats, i.p. from 1 week after operation (E2 1 μg/kg/day; quercetin, genistein 10 mg/kg/day), 9 weeks after operation
  Weight: 342.71 ± 8.26 g
[2]; OVX rats, i.p. from 1 week after operation (E2 1 μg/kg/day; quercetin, genistein 10 mg/kg/day), 10 weeks after operation
  Weight: 347.23 ± 7.57 g
[2]; before operation (baseline, before administration)
  Weight: 217.55 ± 7.24 g
Ovariectomized rats; [3]
  Brain wet weight: 1.98 ± 0.03 g
  Kidney wet weight: 1.83 ± 0.03 g
  Liver wet weight: 10.03 ± 0.36 g
  Skin wet weight: 188 ± 9 mg
  Tibia wet weight: 0.537 ± 0.008 g
  Uterus wet weight: 106 ± 3 mg
Ovariectomized rats; 9 weeks i.p., compared with control group
  Effect on weight of uterus / uterine hypertrophy (in words): did not give rise to change in weight of uterus
